Reference: the supplement of paper PMC6045584
± gives the standard deviation of the averaged measurements.

How the values were obtained:
[1] = compound: CC(=O)NCC(=O)N1[C@@H]2CC[C@H]1c1ccc(Nc3ncc(C(F)(F)F)c(NC4CCC4)n3)cc12; assay: area under dose-response curve of surviving fraction (unscaled, Aref=0) (surviving fraction x log10(nM)); higher = more resistant; settings: exposure time: 5 days; dose range 0.5-1000 nM
How it was run: (§1)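 Tumour cell lines in 384-well plates were exposed to eight inhibitor concentrations, from 0.5 to 1000 nM, for five days, and viability was read by CellTiter-Glo luminescence in three screens per line. Signals were normalised to DMSO-only wells, and 3-parameter logistic regression in the drc R package fitted dose-response survival curves to the surviving fractions. Area under the curve is given as the unscaled activity area. That area is taken over log10 dose with Aref = 0.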

[2] = compound: T1, CC[C@@]1(O)C(=O)OCc2c1cc1n(c2=O)Cc2cc3ccccc3nc2-1 [CAMPTOTHECIN]; assay: as above; settings: exposure time: 5 days; dose range 0.5-1000 nM
How it was run: as §1

[3] = compound: C[C@]1(O)C[C@@H](c2nc(-c3ccc4ccc(-c5ccccc5)nc4c3)c3c(N)nccn32)C1 [OSI-906]; assay: as above; settings: exposure time: 5 days; dose range 0.5-1000 nM
How it was run: as §1

[4] = compound: COc1cc2ncnc(Nc3ccc(F)c(Cl)c3)c2cc1OCCCN1CCOCC1 [GEFITINIB]; assay: as above; settings: exposure time: 5 days; dose range 0.5-1000 nM
How it was run: as §1

[5] = compound: CC(=O)O[C@H]1C(=O)[C@@]2(C)[C@H]([C@H](OC(=O)c3ccccc3)[C@]3(O)C[C@H](OC(=O)[C@H](O)[C@@H](NC(=O)c4ccccc4)c4ccccc4)C(C)=C1C3(C)C)[C@]1(OC(C)=O)CO[C@@H]1C[C@@H]2O [PACLITAXEL]; assay: as above; settings: exposure time: 5 days; dose range 0.5-1000 nM
How it was run: as §1

[6] = compound: Cc1ccc(-c2cc(C(F)(F)F)nn2-c2ccc(S(N)(=O)=O)cc2)cc1 [CELECOXIB]; assay: as above; settings: exposure time: 5 days; dose range 0.5-1000 nM
How it was run: as §1

[7] = compound: O=C(O)C1(C(=O)O)CCC1.[NH2-].[NH2-].[Pt+2] [CARBOPLATIN]; assay: as above; settings: exposure time: 5 days; dose range 0.5-1000 nM
How it was run: as §1

[8] = compound: CC(=O)c1c(C)c2cnc(Nc3ccc(N4CCNCC4)cn3)nc2n(C2CCCC2)c1=O; assay: as above; settings: exposure time: 5 days; dose range 0.5-1000 nM
How it was run: as §1

[9] = compound: COCC[n+]1c2c(n(Cc3cnccn3)c1C)C(=O)c1ccccc1C2=O [YM155]; assay: as above; settings: exposure time: 5 days; dose range 0.5-1000 nM
How it was run: as §1

[10] = compound: T1, CAMPTOTHECIN; assay: surviving fraction relative to DMSO-only wells; higher = less growth inhibition; settings: exposure time: 5 days
How it was run: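 Five days of continuous inhibitor exposure, at 0.5, 1, 5, 10, 50, 100, 500 and 1000 nM, followed a 24-hour period after log-phase tumour cell lines were seeded at 250–500 cells per well in 384-well plates. Surviving fraction was derived from CellTiter-Glo luminescence relative to the median of DMSO-only wells. Plates were read after 10 minutes at room temperature, and lines screened three times were kept only if replicate Pearson r >0.7 and median Z' >0.3.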

Row | Test System | area under dose-response curve [1] | area under dose-response curve [2] | area under dose-response curve [3] | area under dose-response curve [4] | area under dose-response curve [5] | area under dose-response curve [6] | area under dose-response curve [7] | area under dose-response curve [8] | area under dose-response curve [9] | surviving fraction ([10]; 0.5 nM) | surviving fraction ([10]; 1 nM) | surviving fraction ([10]; 5 nM) | surviving fraction ([10]; 10 nM) | surviving fraction ([10]; 50 nM) | surviving fraction ([10]; 100 nM) | surviving fraction ([10]; 500 nM) | surviving fraction ([10]; 1000 nM)
1 | SYO1 SYNOVIAL | 1.98 | 0.528 | 2.64 | 3.17 | 0.539 | 3.18 | 3.25 | 3.14 | 1.25 | 0.359 ± 0.023 | 0.663 ± 0.033 | 0.325 ± 0.026 | 0.15 ± 0.024 | 0.0272 ± 0.0011 | 0.0304 ± 0.00084 | 0.0254 ± 0.0012 | 0.0321 ± 0.0019
2 | CAL120 BREAST | 2.64 | 1.05 | 3 | 3.22 | 0.641 | 3.26 | 3.13 | 3.17 | 0.732 | 0.901 ± 0.069 | 0.819 ± 0.0086 | 0.409 ± 0.033 | 0.314 ± 0.035 | 0.182 ± 0.011 | 0.105 ± 0.0043 | 0.0285 ± 0.0023 | 0.0287 ± 0.0014
3 | SCC36 HEADNECK | 2.74 | 1.36 | 2.48 | 2.61 | 0.905 | 3.53 | 3.45 | 3.5 | 1.77 | 0.804 ± 0.15 | 0.703 ± 0.13 | 0.704 ± 0.14 | 0.495 ± 0.018 | 0.332 ± 0.012 | 0.156 ± 0.0031 | 0.0463 ± 0.012 | 0.0413 ± 0.004
4 | MDAMB361 BREAST | 3.12 | 2.14 | 2.51 | 2.9 | 2.36 | 2.93 | 2.64 | 2.85 | 1.61 | 0.664 ± 0.069 | 0.737 ± 0.045 | 0.747 ± 0.096 | 0.723 ± 0.066 | 0.774 ± 0.071 | 0.702 ± 0.032 | 0.397 ± 0.038 | 0.38 ± 0.041
5 | SCC90 HEADNECK | 2.52 | 1.77 | 3.1 | 2.63 | 1.1 | 3.43 | 3.68 | 3.7 | 2.17 | 0.823 ± 0.035 | 0.879 ± 0.043 | 0.904 ± 0.058 | 0.75 ± 0.046 | 0.343 ± 0.056 | 0.253 ± 0.032 | 0.04 ± 0.0076 | 0.0327 ± 0.0051
6 | SG27 HEADNECK | 3.14 | 2.66 |  | 3.65 | 3.02 | 3.88 | 3.6 | 3.52 | 1.43 | 0.702 ± 0.062 | 0.888 ± 0.19 | 0.867 ± 0.089 | 0.906 ± 0.021 | 0.724 ± 0.034 | 0.928 ± 0.096 | 0.482 ± 0.055 | 0.203 ± 0.025
7 | HCC1395 BREAST | 3.19 | 2.09 |  | 3.91 | 1.76 | 4.09 | 3.87 | 3.96 | 2.28 | 0.71 ± 0.18 | 0.909 ± 0.071 | 0.788 ± 0.064 | 0.732 ± 0.044 | 0.627 ± 0.029 | 0.57 ± 0.086 | 0.421 ± 0.049 | 0.344 ± 0.09
8 | CASKI CERVIX | 2.28 | 1.07 | 2.98 | 2.15 | 0.492 | 3.15 | 3.19 | 3.41 | 1.37 | 0.798 ± 0.11 | 0.821 ± 0.062 | 0.575 ± 0.054 | 0.38 ± 0.035 | 0.0697 ± 0.0057 | 0.0273 ± 0.00058 | 0.018 | 0.0217 ± 0.0011
